Measured values: patent US9132131B2, “Use of adenosine A3 receptor agonists for treatment of neuropathic pain” (Saint Louis University, priority 2011, dated 2015)

What was measured:
[1] = test system: oxaliplatin-induced neuropathic pain; test: Oxaliplatin-induced neuropathic pain (mechano-allodynia, mechano-hyperalgesia); assay type: in vivo, rats
[2] = test system: paclitaxel-induced neuropathic pain; test: Paclitaxel-induced neuropathic pain (mechano-allodynia, mechano-hyperalgesia); assay type: in vivo, rats
[3] = test system: CCI of the sciatic nerve (mechano-allodynia); test: CCI model of neuropathic pain, mechano-allodynia (von Frey PWT); assay type: in vivo, mice
Method: CCI model of neuropathic pain. CCI to the sciatic nerve of the left hind leg in mice was performed under general anaesthesia using the well-characterized Bennett model. Briefly, mice (weighing 25-30 g at the time of surgery) were anesthetized with 3% isoflurane/100% O2 inhalation and maintained on 2% isoflurane/100% O2 for the duration of surgery. The left thigh was shaved, scrubbed with Nolvasan® and a small incision (1-1.5 cm in length) was made in the middle of the lateral aspect of the left thigh to expose the sciatic nerve. The nerve was loosely ligated around the entire diameter of the nerve at three distinct sites (spaced 1 mm apart) using silk sutures (6.0). The surgical site was closed with a single muscle suture and a skin clip. Pilot studies established that under our experimental conditions peak mechano-allodynia develops by day 5-day 7 (D5-D7) following CCI. Test substances or their vehicles were given subcutaneously (s.c.), intraperitoneally (i.p.) or orally by gavage (0.1 ml) at peak mechano-allodynia (D7).
Behavioral testing. […] The plantar aspect of hindpaws were probed three times with calibrated von Frey filaments (Stoelting, mice: 0.07-2.00 grams; rats: 0.407-26 grams) according to the “up-and-down” method. […] Briefly, each rat was placed in a Plexiglas chamber (28×40×35-cm, wire mesh floor) and after its acclimation, a servo-controlled mechanical stimulus was applied to the plantar surface that exerted a progressively increasing punctate pressure up to 50 grams within 10 seconds. Mechanical threshold was assessed three times at each time point to yield a mean value, reported as PWT (grams). […] Mechano-hyperalgesia was assessed in rats by the Randall and Sellitto paw pressure test using an analgesiometer (Ugo Basile). The nociceptive threshold was defined as the force (grams) at which the rat withdrew its paw (cut off set at 250 grams).
Determining ED50 values. Dose response data were curve-fitted using the least sum of square method by a normalized 4-parameter, variable slope non-linear analysis of the % Reversal of Mechano-allodynia in CCI and % Prevention of Mechano-allodynia or Mechano-hyperalgesia in CIPN using GraphPad Prism (Release 5.03, GraphPad Software, Inc.) from which the ED50 was determined and reported with the 95% confidence interval (95% CI). In the CCI model, the % Reversal of Mechano-allodynia=(PWT1h−PWTD7)/(PWTD0−PWTD7)×100, where PWTD0=Paw Withdrawal Threshold (g) at D0, PWT1h=Paw Withdrawal Threshold (g) at 1 hour after the administration of IB-MECA, gabapentin, amitriptyline, or combinations of IB-MECA with gabapentin or amitriptyline, and PWTD7=Paw Withdrawal Threshold (grams) at D7 prior to drug administration.
Statistical Analysis. Data are expressed as mean±SD for n animals. Behavioral data were analyzed by two-way repeated measures ANOVA with Bonferroni comparisons (full time course studies) or one-way ANOVA Dunnett's comparisons (1 hour behavioral data). The dose response curves were compared to a globally fitted curve using the extra sum-of-squares F-test comparisons to determine whether the data represented distinct curves between treatments. Significant differences were defined at a P<0.05. All statistical analysis was performed using GraphPad Prism (v5.03, GraphPad Software, Inc.).

[4] = test system: bortezomib-induced neuropathic pain; test: Bortezomib-induced neuropathic pain (mechano-allodynia, mechano-hyperalgesia); assay type: in vivo, rats
Method: Bortezomib or vehicle (5% Tween 80, 5% ethanol) was injected i.p. in rats on five consecutive days (D0-D4; 0.2 mg/kg) for a final cumulative dose of 1 mg/kg (G. J. Bennett and W. H. Xiao, personal communication). Test substances or their vehicle were given i.p. (0.2 ml) 30 min before the chemotherapeutic agent or its vehicle on D0 (baseline) and then daily until D15 or D17. Behavioral responses (mechano-allodynia and mechano-hyperalgesia) were measured on D0 prior to the first i.p. injection of the chemotherapeutic agent and subsequently at various time points. If testing coincided with a day when rats received test substance, behavioral measurements were taken always before the injection of the test substance. Chemotherapeutic treatments result in bilateral allodynia and hyperalgesia without differences in left and right paw withdrawal threshold (PWT, grams) in any group at any time point, thus values from both paws were averaged.
Behavioral testing. […] The plantar aspect of hindpaws were probed three times with calibrated von Frey filaments (Stoelting, mice: 0.07-2.00 grams; rats: 0.407-26 grams) according to the “up-and-down” method. […] Mechanical threshold was assessed three times at each time point to yield a mean value, reported as PWT (grams). […] Mechano-hyperalgesia was assessed in rats by the Randall and Sellitto paw pressure test using an analgesiometer (Ugo Basile). […]

[5] = test system: motor function (Rotarod latency); test: Rotarod test; assay type: in vivo, mice; conditions: 0.5 μmol/kg i.p., 30, 60, 120 minutes
Method: Rotarod test in mice: Mice were trained before experimentation for their ability to remain for 60 seconds on a revolving Rotarod for mice apparatus (Ugo Basile; accelerating units increasing from 5 to 40 rpm in 60 sec). Mice were injected i.p. with IB-MECA, MRS1898 (0.5 μmol/kg) or vehicle (0.1% DMSO in saline) and then examined at 30, 60 and 120 minutes after administration for motor impairments on the Rotarod. The latency time to fall off the Rotarod was determined with a cut-off time of 120 seconds.

Q: What does the source list for `CNC(=O)[C@H]1O[C@@H](n2cnc3c(NCc4cccc(I)c4)ncnc32)[C@H](O)[C@@H]1O` [IB-MECA, N^6-(3-iodobenzyl)-adenosine-5′-N-methyluronamide]?
A: effect on development of oxaliplatin-induced neuropathic pain ([1]; 0.02-0.2 μmol/kg/d D0-D17): attenuated dose-dependently; neuropathic pain upon drug termination ([1]; oxaliplatin model, through D25): did not emerge upon drug termination; D17 ED50, prevention of oxaliplatin-induced mechano-allodynia ([1]; rats, daily D0-D17): 0.05 µmol/kg/day; D17 ED50, prevention of oxaliplatin-induced mechano-hyperalgesia ([1]; rats, daily D0-D17): 0.06 µmol/kg/day; effect on paclitaxel-induced neuropathic pain ([2]; 0.02-0.2 μmol/kg/d i.p. D0-D15): dose-dependently attenuated; effect on PWT when administered alone (vehicle groups) ([2]; IB-MECA 0.2 μmol/kg/d in any of the chemotherapy models, MRS1523 5 μmol/kg/d): did not affect PWT; neuropathic pain after discontinuation of treatment on D15 ([2]; paclitaxel model, followed through D25): did not emerge through D25; D16 ED50, prevention of paclitaxel-induced mechano-allodynia ([2]; rats, daily i.p. D0-D15): 0.02 µmol/kg/day; D16 ED50, prevention of paclitaxel-induced mechano-hyperalgesia ([2]; rats, daily i.p. D0-D15): 0.03 µmol/kg/day; anti-allodynic effect of low dose alone ([3]; 0.2 μmol/kg): devoid of anti-allodynic effects; reversal of mechano-allodynia on consecutive daily injections ([3]; 0.5 μmol/kg i.p. daily D8-D15, compared to D7): reversed mechano-allodynia to the same degree as observed on D7; effect on PWT in contralateral paws ([3]; D7 after CCI, drug alone): lacked effect; time of maximal reversal of mechano-allodynia ([3]; after single administration on D7): ≤ 1 h; onset of reversal of allodynia ([3]; i.p. on D7): 30 min; Emax, reversal of mechano-allodynia ([3]; mice, D7 after CCI, drug alone): 100%; ED50, reversal of mechano-allodynia ([3]; mice, D7 after CCI, ipsilateral paw, at time of maximal reversal, drug alone (IB-MECA i.p., morphine s.c., gabapentin i.p., amitriptyline oral)): 0.4 µmol/kg; reversal of mechano-allodynia in ipsilateral paws ([3]; single dose D7, IB-MECA 0.2-2, CI-IB-MECA 0.6, MRS1898 0.5 μmol/kg i.p., morphine 0.11-35 s.c., gabapentin 18-584 i.p., amitriptyline 3-191 μmol/kg oral): reversed allodynia; effect on development of bortezomib-induced mechano-allodynia and mechano-hyperalgesia ([4]; 0.2 μmol/kg/d (not shown)): blocked the development; neuropathic pain after treatment was discontinued on D17 ([4]; bortezomib model): did not emerge; Rotarod deficits [5]: did not induce Rotarod deficits
